Test results from patent US9340577B2, “HLA binding motifs and peptides and their uses” (priority 1992, dated 2016).
No end group written: not given here.

Legend:
Assay in all cases: biochemical
Format in all cases: binding
[1] = molecular target: A*0206 (Homo sapiens, UniProt P04439, D140Y/D185E/D98H/E176V/E277Q/F33Y/G131W/G231S/I119V/I121R/I166T/I218V/L300P/L318F/N151K/N90K/P208A/P217A/Q86G/Q94H/R138H/R169H/T345S)
[2] = molecular target: A*0203 (Homo sapiens, UniProt P04439, A173T/D140Y/D185E/D98H/E277Q/G131W/G231S/I119V/I121R/I166T/I218V/L180W/L300P/L318F/N151K/N90K/P208A/P217A/Q86G/Q94H/R138H/R169H/T345S)
[3] = molecular target: A*6802 (Homo sapiens, UniProt P04439, A269V/D140Y/D185E/E176V/E277Q/E87N/F33Y/G231S/I121R/I166T/I218V/L180W/L300P/L318F/N151K/P208A/P217A/Q86R/R138H/R169H/S129P/T345S/V36M)
[4] = molecular target: A*0202 (Homo sapiens, UniProt P04439, D140Y/D185E/D98H/E176V/E277Q/G131W/G231S/I119L/I121R/I166T/I218V/L180W/L300P/L318F/N151K/N90K/P208A/P217A/Q67R/Q86G/Q94H/R138H/R169H/T345S)
[5] = molecular target: HLA-A*0201 (HLA-A2.1) (Homo sapiens, UniProt P04439, D140Y/D185E/D98H/E176V/E277Q/G131W/G231S/I119V/I121R/I166T/I218V/L300P/L318F/N151K/N90K/P208A/P217A/Q86G/Q94H/R138H/R169H/T345S)

Sequence | IC50 [1] | IC50 [2] | IC50 [3] | IC50 [4] | IC50 [5]
ILNTTYLWWV [Peptide 9013.0195] | 775 nM | 22 nM | 15900 nM | 121 nM | –
FQQSTQELFV [Peptide 9013.0178] | 60 nM | 46 nM | > 20000 nM | 21 nM | –
GMGCTGWFEV [Peptide 1578.19] | 1460 nM | 62 nM | 1320 nM | 37 nM | –
ITIGVLVGV [Peptide 9013.0109] | 55 nM | 16 nM | 9 nM | 43 nM | –
ILYAHIQCL [Peptide 1578.08] | 420 nM | 10 nM | 16400 nM | 9.4 nM | –
LTNTGLYNL [Peptide 1481.17] | 1830 nM | 4990 nM | 1580 nM | 20 nM | –
GVLVGVALV [Peptide 9013.0110] | 56 nM | 472 nM | – | 6090 nM | 946 nM
TLYAHIQCL [Peptide 1578.26] | 420 nM | 9.4 nM | – | 4.9 nM | 269 nM
LQGAIISFV [Peptide 1578.28] | 20 nM | 11 nM | – | 6.6 nM | 42 nM
AQYSWLIDGNV [Peptide 9013.0314] | 70 nM | 48 nM | 15600 nM | 62 nM | –
RQIIGYVIGV [Peptide 9013.0139] | 47 nM | 20 nM | 27 nM | 7.4 nM | –
SLQELFIPNI [Peptide 9013.0182] | 66 nM | 35 nM | 7460 nM | 15 nM | –
VLGEAMSQA [Peptide 1539.08] | 1090 nM | 22 nM | > 20000 nM | 21 nM | –
SLLTFWNPPTV [Peptide 9013.0256] | 536 nM | 54 nM | 2270 nM | 54 nM | –
RLTVKTITVSA [Peptide 9013.0319] | 1360 nM | 91 nM | 270 nM | 401 nM | –
SLMKFLQGSV [Peptide 1578.04] | 1450 nM | 4.6 nM | – | 31 nM | 436 nM
GTFQQSTQEV [Peptide 9013.0175] | 2050 nM | 431 nM | – | 157 nM | > 20000 nM
GLSLPVSPRL [Peptide 9013.0220] | > 20000 nM | 3870 nM | > 20000 nM | 223 nM | –
YLIGTQQAT [Peptide 9013.0025] | 5520 nM | 18 nM | 8240 nM | 2.6 nM | –
QLSNGNRTLTV [Peptide 9013.0334] | > 20000 nM | 363 nM | > 20000 nM | 20 nM | –
ITVNNSGSYV [Peptide 9013.0187] | 1010 nM | 255 nM | – | 334 nM | > 20000 nM
GLLVGVALI [Peptide 9013.0111] | 206 nM | 13 nM | – | 89 nM | 158 nM
TLDATYLWWV [Peptide 9013.0158] | 155 nM | 468 nM | – | 137 nM | 61 nM
LTFWNPPTV [Peptide 9013.0006] | 5.2 nM | 2.3 nM | – | 17 nM | 3.4 nM
FLQGCIISYA [Peptide 1578.18] | 241 nM | 9 nM | – | 2.6 nM | 93 nM
LLIESTPFNV [Peptide 9013.0128] | 62 nM | 8.1 nM | – | 4 nM | 16 nM
AIFGVNPTV [Peptide 1578.25] | 96 nM | 92 nM | – | 21 nM | 205 nM
ALYSWLIDGNI [Peptide 9013.0315] | 92 nM | 7 nM | – | 3.6 nM | 25 nM
